From US8796460B2, “Compounds for inhibiting KSP kinesin activity” (Mercky Sharp & Dohme Corp., priority 2007, dated 2014)

Test system: HCT116 colon cancer cells
Experiment: KSP Cellular Assay (percent of cells staining positive for Phos-Histone H3 / Phos-MPM2)
Format: cell-based
Conditions: Homo sapiens, HCT-116, 16 h, Table 601; HCT116 cells, 16 hours with drug; read-out: EC50 (nM) Range
Procedure: HCT116 colon cancer cells were grown in DMEM:F12 media with 10% heat inactivated FBS at 37 degrees with 5% CO2. Cells were plated at 7,500 cells per well in PDL coated 384-well tissue culture plates. 6 hours later media was removed and new media containing drug was added. Cells were incubated with drug for 16 hours. All further steps were performed at room temperature in the dark. Cells were fixed with 25 ul/well Prefer fixation solution plus 250 nM Hoechst dye and incubated for 30 minutes. The fixation solution was removed and cells were washed with PBS. Cells were then permeabilized with 25 ul/well 0.2% Triton-X in PBS and incubated for 10 minutes. Cells were washed with PBS and then incubated with 25 ul/well PBS containing 3% FBS for 30 minutes. Cells were then stained overnight at 4 degrees with 25 ul/well antibody solution in PBS plus 3% FBS. Antibodies used were Phos-Histone H3 (ser10)-Alexa Flur 488 Conjugate and Phos-MPM2 Texas Red Conjugate. Cells were washed with PBS and then immunofluorescence images captured with HT Pathway microscope. The percent of cells staining positive was calculated and EC50 values for the compounds of the invention that were tested were determined using Excel XLfit.
EC50 Determinations: Dose-response curves were plotted from inhibition data generated each in duplicate, from 8 point serial dilutions of inhibitory compounds. Concentration of compound was plotted against enzyme activity (OD reading). To generate EC50 values, the dose-response curves were then fitted to a standard sigmoidal curve and EC50 values were derived by nonlinear regression analysis.

EC50 [nM] | SMILES
500 to 1000 | CN(C)C(=O)N1N=C(c2cc(F)ccc2F)SC12CCc1ccccc12 (centres unmarked) [compound 602]
> 1000 | CN(C)C(=O)N1N=C(c2cc(F)ccc2F)SC12CCCc1sccc12 (centres unmarked) [compound 603]

Same assay, conditions: Homo sapiens, HCT-116, 16 h, Table 701; HCT116 cells, 16 hours with drug; read-out: EC50 (nM) Range

EC50 [nM] | SMILES
> 1000 | NCCN1N=C(c2cc(F)ccc2F)SC12CCOc1ccccc12 (centres unmarked) [compound 701]
> 1000 | CC(C)N1N=C(c2cc(F)ccc2F)SC12CCOc1ccccc12 (centres unmarked) [compound 702]
> 1000 | CCN1N=C(c2cc(F)ccc2F)SC12CCOc1ccccc12 (centres unmarked) [compound 703]
> 1000 | COCCN1N=C(c2cc(F)ccc2F)SC12CCOc1ccccc12 (centres unmarked) [compound 704]

Same assay, conditions: Homo sapiens, HCT-116, 16 h, Table 801; HCT116 cells, 16 hours with drug; read-out: EC50 (nM) Range

EC50 [nM] | SMILES
≤ 500 | CC(=O)N1N=C(c2cc(F)ccc2F)S[C@@]12c1cc(F)ccc1OC[C@H]2CCN [compound 801]
> 1000 | CC(=O)N1N=C(c2cc(F)ccc2F)S[C@]12c1cc(F)ccc1OC[C@@H]2CCN [compound 802]
≤ 500 | CC(=O)N1N=C(c2cc(F)ccc2F)S[C@]12c1cc(F)ccc1OC[C@H]2CCN [compound 803]
≤ 500 | CC(=O)N1N=C(c2cc(F)ccc2F)S[C@@]12c1cc(F)ccc1OC[C@@H]2CCN [compound 804]
≤ 500 | CC(=O)N1N=C(c2cc(F)ccc2F)S[C@@]12c1cc(F)c(F)cc1OC[C@H]2CCN [compound 807]
> 1000 | CC(=O)N1N=C(c2cc(F)ccc2F)S[C@]12c1cc(F)c(F)cc1OC[C@@H]2CCN [compound 808]
≤ 500 | CC(=O)N1N=C(c2cc(F)ccc2F)S[C@@]12c1cccc(F)c1OC[C@H]2CCN [compound 809]
> 1000 | CC(=O)N1N=C(c2cc(F)ccc2F)S[C@]12c1cccc(F)c1OC[C@@H]2CCN [compound 810]
≤ 500 | CC(=O)N1N=C(c2cc(F)ccc2F)S[C@@]12c1cc(Cl)ccc1OC[C@H]2CCN [compound 811]
> 1000 | CC(=O)N1N=C(c2cc(F)ccc2F)S[C@]12c1cc(Cl)ccc1OC[C@@H]2CCN [compound 812]
≤ 500 | CC(=O)N1N=C(c2cc(F)ccc2F)S[C@@]12c1ccccc1OC[C@H]2CCNO [compound 813]
≤ 500 | CC(=O)N1N=C(c2cc(F)ccc2F)S[C@@]12c1ccccc1OC[C@@H]2CCN [compound 814]
≤ 500 | CC(=O)N1N=C(c2cc(F)ccc2F)S[C@@]12c1ccccc1OC[C@H]2CCN [compound 815]
> 1000 | CC(=O)N1N=C(c2cc(F)ccc2F)S[C@]12c1ccccc1OC[C@@H]2CCN [compound 816]
≤ 500 | CC(=O)N1N=C(c2cc(F)ccc2F)S[C@]12c1ccccc1OC[C@H]2CCN [compound 817]

Same assay, conditions: Homo sapiens, HCT-116, 16 h, Table 1201 (Example 1201); HCT116 cells, 16 hours with drug; read-out: EC50 (nM) Range

EC50 [nM] | SMILES
≤ 500 | CCNCC[C@@H]1COc2ccccc2[C@@]12SC(c1cc(F)ccc1F)=NN2C(C)=O [compound 1202]
≤ 500 | CC(=O)N1N=C(c2cc(F)ccc2F)S[C@@]12c1ccccc1OC[C@H]2CCNC(C)C [compound 1203]

Same assay, conditions: Homo sapiens, HCT-116, 16 h, table of Example 901; HCT116 cells, 16 hours with drug; read-out: EC50 (nM) Range

EC50 [nM] | SMILES
≤ 500 | CC(=O)N1N=C(c2cc(F)ccc2F)S[C@@]12c1ccccc1OC[C@@H]2CC#N [compound 902]
≤ 500 | CC(=O)N1N=C(c2cc(F)ccc2F)S[C@@]12c1ccccc1OC[C@H]2CC#N [compound 903]
500 to 1000 | CC(=O)N1N=C(c2cc(F)ccc2F)S[C@]12c1ccccc1OC[C@H]2CC#N [compound 904]
> 1000 | CC(=O)N1N=C(c2cc(F)ccc2F)S[C@]12c1ccccc1OC[C@@H]2CC#N [compound 905]
≤ 500 | CC(=O)N1N=C(c2cc(F)ccc2F)S[C@]12c1ccccc1C[C@H]2CC#N [compound 906]
≤ 500 | CC(=O)N1N=C(c2cc(F)ccc2F)S[C@]12c1ccccc1C[C@@H]2CC#N [compound 907]

Same assay, conditions: Homo sapiens, HCT-116, 16 h, table of Example 1004; HCT116 cells, 16 hours with drug; read-out: EC50 (nM) Range

EC50 [nM] | SMILES
≤ 500 | CC(=O)N1N=C(c2cc(F)ccc2F)S[C@@]12c1ccccc1OC[C@H]2CCCN [compound 1004]
> 500 | CC(=O)N1N=C(c2cc(F)ccc2F)S[C@]12c1ccccc1OC[C@@H]2CCCN [compound 1005]

Same assay, conditions: Homo sapiens, HCT-116, 16 h, table of Example 1801 (headed Table 1201); HCT116 cells, 16 hours with drug; read-out: EC50 (nM) Range

EC50 [nM] | SMILES
≤ 500 | CC(=O)N1N=C(c2ccccc2F)S[C@@]12c1ccccc1OC[C@H]2CCN [compound 1802]
≤ 500 | CC(=O)N1N=C(c2cc(Cl)ccc2F)S[C@@]12c1ccccc1OC[C@H]2CCN [compound 1803]
> 1000 | CC(=O)N1N=C(c2ccccc2F)S[C@]12c1ccccc1OC[C@@H]2CCN [compound 1804]
> 1000 | CC(=O)N1N=C(c2cc(Cl)ccc2F)S[C@]12c1ccccc1OC[C@@H]2CCN [compound 1805]
≤ 500 | CC(=O)N1N=C(c2cc(C(F)(F)F)ccc2F)S[C@@]12c1ccccc1OC[C@H]2CCN [compound 1806]
> 1000 | CC(=O)N1N=C(c2cc(C(F)(F)F)ccc2F)S[C@]12c1ccccc1OC[C@@H]2CCN [compound 1807]
≤ 500 | CC(=O)N1N=C(c2ccccc2)S[C@@]12c1ccccc1OC[C@H]2CCN [compound 1808]
> 1000 | CC(=O)N1N=C(c2ccccc2)S[C@]12c1ccccc1OC[C@@H]2CCN [compound 1809]
≤ 500 | CC(=O)N1N=C(c2cccc(F)c2)S[C@@]12c1ccccc1OC[C@H]2CCN [compound 1810]
> 1000 | CC(=O)N1N=C(c2cccc(F)c2)S[C@]12c1ccccc1OC[C@@H]2CCN [compound 1811]
≤ 500 | CC(=O)N1N=C(c2cccc(Cl)c2)S[C@@]12c1ccccc1OC[C@H]2CCN [compound 1812]
> 1000 | CC(=O)N1N=C(c2cccc(Cl)c2)S[C@]12c1ccccc1OC[C@@H]2CCN [compound 1813]
≤ 500 | CC(=O)N1N=C(c2cccc(C(F)(F)F)c2)S[C@@]12c1ccccc1OC[C@H]2CCN [compound 1814]
≤ 500 | CC(=O)N1N=C(c2cc(F)cc(F)c2)S[C@@]12c1ccccc1OC[C@H]2CCN [compound 1815]
> 1000 | CC(=O)N1N=C(c2ccc(F)cc2F)S[C@]12c1ccccc1OC[C@@H]2CCN [compound 1816]
> 1000 | CC(=O)N1N=C(c2cccc(C(F)(F)F)c2)S[C@]12c1ccccc1OC[C@@H]2CCN [compound 1817]
> 1000 | CC(=O)N1N=C(c2cc(F)cc(F)c2)S[C@]12c1ccccc1OC[C@@H]2CCN [compound 1818]
≤ 500 | CC(=O)N1N=C(c2ccc(F)cc2F)S[C@@]12c1cc(F)ccc1OC[C@H]2CCN [compound 1819]
≤ 500 | CC(=O)N1N=C(c2ccc(F)c(F)c2)S[C@@]12c1cc(F)ccc1OC[C@H]2CCN [compound 1820]
≤ 500 | CC(=O)N1N=C(c2cc(F)cc(F)c2)S[C@@]12c1cc(F)ccc1OC[C@H]2CCN [compound 1821]
> 1000 | CC(=O)N1N=C(c2ccc(F)cc2F)S[C@]12c1cc(F)ccc1OC[C@@H]2CCN [compound 1822]
> 1000 | CC(=O)N1N=C(c2ccc(F)c(F)c2)S[C@]12c1cc(F)ccc1OC[C@@H]2CCN [compound 1823]
> 1000 | CC(=O)N1N=C(c2cc(F)cc(F)c2)S[C@]12c1cc(F)ccc1OC[C@@H]2CCN [compound 1824]

Same assay, conditions: Homo sapiens, HCT-116, 16 h, table of Example 1901; HCT116 cells, 16 hours with drug; read-out: EC50 (nM) Range

EC50 [nM] | SMILES
≤ 500 | CO[C@@H](C)C(=O)N1N=C(c2cc(F)ccc2F)S[C@@]12c1cc(F)ccc1OC[C@H]2CCN [compound 1902]
> 1000 | CO[C@H](C)C(=O)N1N=C(c2cc(F)ccc2F)S[C@]12c1cc(F)ccc1OC[C@@H]2CCN [compound 1903]
≤ 500 | CO[C@H](C)C(=O)N1N=C(c2cc(F)ccc2F)S[C@@]12c1cc(F)ccc1OC[C@H]2CCN [compound 1904]
> 1000 | COCCOCC(=O)N1N=C(c2cc(F)ccc2F)S[C@]12c1cc(F)ccc1OC[C@@H]2CCN [compound 1905]
≤ 500 | COCCOCC(=O)N1N=C(c2cc(F)ccc2F)S[C@@]12c1cc(F)ccc1OC[C@H]2CCN [compound 1906]
≤ 500 | CO[C@@H](C)C(=O)N1N=C(c2cc(F)ccc2F)S[C@@]12c1cc(F)cc(F)c1OC[C@H]2CCN [compound 1907]
> 1000 | CO[C@@H](C)C(=O)N1N=C(c2cc(F)ccc2F)S[C@]12c1cc(F)cc(F)c1OC[C@@H]2CCN [compound 1908]
≤ 500 | COCCOCC(=O)N1N=C(c2cc(F)ccc2F)S[C@@]12c1ccccc1OC[C@H]2CCN [compound 1909]
> 1000 | COCCOCC(=O)N1N=C(c2cc(F)ccc2F)S[C@]12c1ccccc1OC[C@@H]2CCN [compound 1910]
≤ 500 | COCCOCC(=O)N1N=C(c2cc(F)ccc2F)S[C@@]12c1cc(F)cc(F)c1OC[C@H]2CCN [compound 1911]
> 1000 | COCCOCC(=O)N1N=C(c2cc(F)ccc2F)S[C@]12c1cc(F)cc(F)c1OC[C@@H]2CCN [compound 1912]
